Measurements reported in US20220168295A1, “RIMEGEPANT FOR CGRP RELATED DISORDERS” (Biohaven Pharmaceutical Ireland DAC, priority 2018, published 2022).

Assays:
Format in all cases: in vivo, human
[1] = Pooled adverse event and LFT safety data, Studies 301, 302 and 303; parameters: ALT or AST >10x ULN / ALT or AST >20x ULN: unit not given here; conditions: pooled Studies 301, 302 and 303, n = 1,771
[2] = system: subjects with Acute Migraines; assay: Study 301 (BHV3000-301) Phase 3 placebo-controlled trial, rimegepant 75 mg tablet, acute treatment of migraine: efficacy and safety
Procedure: Clinical Trial—BHV3000-301: Phase 3: Double-Blind, Randomized, Placebo-Controlled, Safety and Efficacy Trial of BHV-3000 (Rimegepant) for the Acute Treatment of Migraine (ClinicalTrials.gov Identifier: NCT03235479). A phase 3 clinical study was conducted with 1490 participants, as follows. The purpose of this study was to compare the efficacy of BHV-3000 (rimegepant) versus placebo in subjects with Acute Migraines • Study Type: Interventional (Clinical Trial) • Actual Enrollment: 1490 participants • Allocation: Randomized • Intervention Model: Parallel Assignment • Intervention Model Description: Double-blind to Sponsor, Investigator and Subject Randomized Controlled Trial • Masking: Triple (Participant, Care Provider, Investigator) • Masking Description: Double-blind to Sponsor, Investigator and Subject • Primary Purpose: Treatment • Official Title: BHV3000-301: Phase 3: Double-Blind, Randomized, Placebo-Controlled, Safety and Efficacy Trial of BHV-3000 (Rimegepant) for the Acute Treatment of Migraine [table] • 1. Pain freedom of rimegepant (75 mg tablet) compared with placebo in the acute treatment of migraine will be measured using the number of evaluable subjects that report no pain at 2 hours post-dose. [Time Frame: Two hours post dose] • Pain will be measured on a 4 point Likert scale (0=none, 1=mild, 2=moderate, 3=severe) • 2. Freedom from the most bothersome symptom (MBS) of rimegepant (75 mg tablet) compared with placebo will be measured using the number of evaluable subjects that report the absence of their MBS at 2 hours post-dose. [Time Frame: Two hours post dose] • The MBS (nausea, phonophobia or photophobia) will measured using a binary scale (0=absent, 1=present). • 1. […] [Time Frame: 2 hours −24 hours post-dose] • Sustained Pain Freedom as measured by a 4 point numeric rating scale (None, Mild, Moderate, Severe) • 2. The difference between rimegepant (75 mg tablet) compared to placebo by tabulating the absence of photophobia at 2 hours post-dose in the subset of subjects that reported the presence of photophobia at headache baseline. [Time Frame: 2 hours post-dose] • Photophobia • 3. To evaluate rimegepant (75 mg tablet) compared to placebo by tabulating the number of subjects that report the absence of phonophobia at 2 hours post-dose in the subset of subjects that reported the presence of phonophobia at headache baseline. [Time Frame: 2 hours post-dose] • Phonophobia • 4. To measure the difference between rimegepant (75 mg tablet) compared to placebo on Pain Relief, at 2 hours post-dose, for those that report a pain level of moderate or severe at baseline and then report a pain level of none or mild. [Time Frame: 2 hours post-dose] • Pain Relief as measured by a 4 point numeric rating scale (None, Mild, Moderate, Severe) • 5. Freedom from Nausea by tabulating the number of subjects that report the absence of nausea at 2 hours post-dose in the subset of subjects that reported the presence of nausea at headache baseline. [Time Frame: 2 hours post-dose] • Freedom from Nausea • 6. The difference between rimegepant (75 mg tablet) compared to placebo on the probability of requiring rescue medication using the number of subjects that take rescue medication within […] administration of study medication (BHV3000 or placebo). [Time Frame: up to 24 hours post-dose] • Requiring Rescue Medication • 7. […] [Time Frame: 2 hours-24 hours post-dose] • Sustained Pain Freedom • 8. […] [Time Frame: 2 hours-24 hours post-dose] • Sustained Pain Relief as measured by a 4 point numeric rating scale (None, Mild, Moderate, Severe) • 9. […] [Time Frame: 2 hours-48 hours post-dose] • Sustained Pain Relief as measured by a 4 point numeric rating scale (None, Mild, Moderate, Severe) • 10. To measure the difference between rimegepant (75 mg tablet) relative to placebo on the proportion of subjects able to function normally, at 2 hours, using the number of subjects that self-report as “normal” on the functional disability scale. […]

[3] = Pooled liver function test (LFT) profile, Study 301 and Study 302; conditions: pooled Study 301 and 302; n = 1089
Procedure: (§1) In a double-blind, randomized, placebo-controlled, multicenter study (Study 301, NCT03235479) adults 3.8 years of age with at least a 1-year history of ICHD 3-beta migraine were eligible to participate. Following a 3- to 28-day screening period, subjects were randomized to receive rimegepant 75 mg or matching placebo and instructed to treat a single migraine attack with 1 dose of the blinded study drug (rimegepant or placebo) when headache pain reached moderate or severe intensity. The coprimary endpoints were pain freedom at 2 hours postdose and freedom from the most bothersome symptom (MBS) at 2 hours postdose. Safety assessments included adverse events (AEs), ECGs, vital signs, physical measurements, and routine laboratory tests, including assessment of liver function. Unless stated otherwise, values presented are mean±SD.
as §1, with “302, NCT03237845)” for “301, NCT03235479)”, “≥18” for “3.8”

For `N[C@@H]1c2cccnc2[C@H](OC(=O)N2CCC(n3c(=O)[nH]c4ncccc43)CC2)CC[C@H]1c1cccc(F)c1F` [Rimegepant, [(5S,6S,9R)-5-amino-6-(2,3-difluorophenyl)-6,7,8,9-tetrahydro-5H-cyclohepta[b]pyridin-9-yl] 4-(2-oxo-3H-imidazo[4,5-b]pyridin-1-yl)piperidine-1-carboxylate], the “ALT or AST >3x ULN, n (%)” value [1] was 2 (0.1%) n (%), the “ALT or AST >10x ULN” value [1] was 0 and the “ALT or AST >20x ULN” value [1] was 0. The “ALT or AST >ULN, n (%)” value [1] was 48 (2.7%) n (%), the “ALT or AST >5x ULN, n (%)” value ([1]; AST elevation, not drug-related per investigator) was 1 (0.06%) ^2 n (%) and the “SAEs related to the study drug” value [2] was “No SAE was determined to be related to the study drug”. For the same molecule, the “Transaminase level >5 times ULN, subjects” value [2] was “no subject”, the “Adverse event dizziness, incidence” value ([2]; 4/546) was 0.7% and the “Adverse event nausea, incidence” value ([2]; 5/546) was 0.9%. The “Serum ALT or AST levels greater than ULN, subjects” value ([2]; 11/546) was 2.0%, the “Proportion of patients achieving normal function at 2 hours (functional disability) versus placebo” value ([2]; P<0.0001) was “greater proportion” and the “Serious AEs (SAEs), subjects” value ([2]; n=2, both not dosed before onset) was 0.4%. The “Transaminase level >3 times ULN, subjects” value ([2]; one subject) was 0.2%, the “ALT >3x ULN, subjects n (%)” value [3] was 1 (0.1%) n (%) and the “ALT >5x ULN, subjects” value [3] was 0. The “ALT >10x ULN, subjects” value [3] was 0, the “ALT >20x ULN, subjects” value [3] was 0 and the “ALT >ULN, subjects n (%)” value [3] was 22 (2.0%) n (%). For the same molecule, the “AST >3x ULN, subjects n (%)” value [3] was 1 (0.1%) n (%), the “AST >5x ULN, subjects” value [3] was 0 and the “AST >10x ULN, subjects” value [3] was 0. For the same molecule, the “AST >20x ULN, subjects” value [3] was 0 and the “AST >ULN, subjects n (%)” value [3] was 12 (1.1%) n (%).
